{"source": "ChEMBL document CHEMBL5532643", "about": "“Design and synthesis of etrasimod derivatives as potent antibacterial agents against Gram-positive bacteria” (Eur J Med Chem, 2024)", "key": {"Staphylococcus aureus [1]": {"system": "Staphylococcus aureus", "test": "Synergistic antibacterial activity against Staphylococcus aureus ATCC 25923 assessed as ciprofloxacin MIC incubated for 18 to 20 hrs by checkboard assay", "assay_type": "functional", "details": "time 18-20 hrs"}, "Staphylococcus aureus [2]": {"system": "Staphylococcus aureus", "test": "Synergistic antibacterial activity against Staphylococcus aureus ATCC 25923 incubated for 18 to 20 hrs in presence of linezolid by checkboard assay", "assay_type": "functional", "details": "time 18-20 hrs"}, "[3]": {"test": "Selectivity index, ratio of CC50 for cytotoxicity against human THP-1 cells assessed as reduction in cell viability to MIC for antibacterial activity against methicillin-resistant Enterococcus faecium assessed as reduction in bacterial growth", "assay_type": "toxicity, cell-based", "details": "read-out: Selectivity Index"}, "A549": {"system": "A549", "test": "Cytotoxicity against human A549 cells assessed as reduction in cell viability incubated for 24 hrs by resazurin staining based analysis", "assay_type": "functional"}, "Enterococcus faecalis [4]": {"system": "Enterococcus faecalis", "test": "Antibacterial activity against Enterococcus faecalis ATCC 29212 assessed as reduction in bacterial growth incubated for 18 to 20 hrs by broth microdilution assay", "assay_type": "functional", "details": "time 18-20 hrs"}, "[5]": {"test": "Selectivity index, ratio of CC50 for cytotoxicity against human THP-1 cells assessed as reduction in cell viability to MIC for antibacterial activity against Staphylococcus aureus assessed as reduction in bacterial growth", "assay_type": "toxicity, cell-based", "details": "read-out: Selectivity Index"}, "[6]": {"test": "Selectivity index, ratio of CC50 for cytotoxicity against human THP-1 cells assessed as reduction in cell viability to MIC for antibacterial activity against methicillin-resistant Enterococcus faecalis assessed as reduction in bacterial growth", "assay_type": "toxicity, cell-based", "details": "read-out: Selectivity Index"}, "Enterococcus faecalis [7]": {"system": "Enterococcus faecalis", "test": "Synergistic antibacterial activity against Enterococcus faecalis ATCC 29212 incubated for 18 to 20 hrs in presence of vancomycin by checkboard assay", "assay_type": "functional", "details": "time 18-20 hrs"}, "Staphylococcus aureus [8]": {"system": "Staphylococcus aureus", "test": "Synergistic antibacterial activity against Staphylococcus aureus ATCC 25923 incubated for 18 to 20 hrs in presence of vancomycin by checkboard assay", "assay_type": "functional", "details": "time 18-20 hrs"}, "[9]": {"test": "Hemolytic activity in mouse RBC assessed as hemolysis at 250 uM incubated for 1 hr", "assay_type": "toxicity, cell-based, Erythrocyte", "details": "mouse red blood cells (erythrocytes), read-out: Activity"}, "Staphylococcus aureus [10]": {"system": "Staphylococcus aureus", "test": "Synergistic antibacterial activity against methicillin-resistant Staphylococcus aureus ATCC 43300 assessed as gentamicin MIC incubated for 18 to 20 hrs by checkboard assay", "assay_type": "functional", "details": "time 18-20 hrs"}, "Staphylococcus aureus [11]": {"system": "Staphylococcus aureus", "test": "Synergistic antibacterial activity against methicillin-resistant Staphylococcus aureus ATCC 43300 assessed as fractional inhibitory concentration index incubated for 18 to 20 hrs in presence of vancomycin by checkboard assay", "assay_type": "functional", "details": "time 18-20 hrs"}, "Staphylococcus aureus [12]": {"system": "Staphylococcus aureus", "test": "Antimicrobial activity against methicillin-resistant Staphylococcus aureus ATCC 43300 infected in Caenorhabditis elegans AU37 assessed as reduction in bacterial burden at 20 uM incubated for 18 hrs", "assay_type": "functional", "set-up": "scale not given: the % may be the effect or the level left"}, "Enterococcus faecalis [13]": {"system": "Enterococcus faecalis", "test": "Bactericidal activity against Enterococcus faecalis ATCC 29212 assessed as reduction in bacterial growth at 0.5 to 8 times MIC incubated for 24 hrs by time-kill assay", "assay_type": "functional"}, "[14]": {"system": "Staphylococcus epidermidis", "test": "Antibacterial activity against […] Staphylococcus epidermidis RP62A assessed as reduction in bacterial growth incubated for 18 to 20 hrs by broth microdilution assay", "assay_type": "functional", "details": "time 18-20 hrs"}, "Staphylococcus aureus [15]": {"system": "Staphylococcus aureus", "test": "Synergistic antibacterial activity against methicillin-resistant Staphylococcus aureus ATCC 43300 incubated for 18 to 20 hrs in presence of vancomycin by checkboard assay", "assay_type": "functional", "details": "time 18-20 hrs"}, "[16]": {"test": "Toxicity in Caenorhabditis elegans AU37 assessed as worms survival at 10 uM measured after 72 hrs"}, "Staphylococcus aureus [17]": {"system": "Staphylococcus aureus", "test": "Synergistic antibacterial activity against Staphylococcus aureus ATCC 25923 assessed as vancomycin MIC incubated for 18 to 20 hrs by checkboard assay", "assay_type": "functional", "details": "time 18-20 hrs"}, "Enterococcus faecalis [18]": {"system": "Enterococcus faecalis", "test": "Synergistic antibacterial activity against Enterococcus faecalis ATCC 29212 assessed as linezolid MIC incubated for 18 to 20 hrs by checkboard assay", "assay_type": "functional", "details": "time 18-20 hrs"}, "Staphylococcus aureus [19]": {"system": "Staphylococcus aureus", "test": "Synergistic antibacterial activity against Staphylococcus aureus ATCC 25923 assessed as gentamicin MIC incubated for 18 to 20 hrs by checkboard assay", "assay_type": "functional", "details": "time 18-20 hrs"}, "Staphylococcus aureus [20]": {"system": "Staphylococcus aureus", "test": "Antibacterial activity against Staphylococcus aureus ATCC 25923 assessed as reduction in bacterial growth incubated for 18 to 20 hrs by broth microdilution assay", "assay_type": "functional", "details": "time 18-20 hrs"}, "Staphylococcus aureus [21]": {"system": "Staphylococcus aureus", "test": "Bactericidal activity against Staphylococcus aureus ATCC 25923 assessed as log reduction in colony forming units at 0.5 to 8 times MIC measured after 6 hrs by time kill-assay", "assay_type": "functional"}, "Staphylococcus aureus [22]": {"system": "Staphylococcus aureus", "test": "Synergistic antibacterial activity against Staphylococcus aureus ATCC 25923 incubated for 18 to 20 hrs in presence of gentamicin by checkboard assay", "assay_type": "functional", "details": "time 18-20 hrs"}, "Pseudomonas aeruginosa": {"system": "Pseudomonas aeruginosa", "test": "Antibacterial activity against Pseudomonas aeruginosa ATCC 15442 assessed as reduction in bacterial growth incubated for 18 to 20 hrs by broth microdilution assay", "assay_type": "functional", "details": "time 18-20 hrs"}, "Cell membrane": {"system": "Cell membrane", "test": "Induction of cytoplasmic membrane depolarization in Staphylococcus aureus ATCC 25923 assessed as increase in fluorescence intensity at 4 times MIC measured for 30 mins by DiSC3(5) dye based fluorescence method", "assay_type": "cell membranes"}, "Staphylococcus aureus [23]": {"system": "Staphylococcus aureus", "test": "Synergistic antibacterial activity against Staphylococcus aureus ATCC 25923 assessed as fractional inhibitory concentration index incubated for 18 to 20 hrs in presence of linezolid by checkboard assay", "assay_type": "functional", "details": "time 18-20 hrs"}, "Staphylococcus aureus [24]": {"system": "Staphylococcus aureus", "test": "Synergistic antibacterial activity against Staphylococcus aureus ATCC 25923 assessed as fractional inhibitory concentration index incubated for 18 to 20 hrs in presence of gentamicin by checkboard assay", "assay_type": "functional", "details": "time 18-20 hrs"}, "Staphylococcus aureus [25]": {"system": "Staphylococcus aureus", "test": "Synergistic antibacterial activity against methicillin-resistant Staphylococcus aureus ATCC 43300 incubated for 18 to 20 hrs in presence of linezolid by checkboard assay", "assay_type": "functional", "details": "time 18-20 hrs"}, "Acinetobacter baumannii": {"system": "Acinetobacter baumannii", "test": "Antibacterial activity against Acinetobacter baumannii NCTC 13423 assessed as reduction in bacterial growth incubated for 18 to 20 hrs by broth microdilution assay", "assay_type": "functional", "details": "time 18-20 hrs"}, "[26]": {"test": "Cytotoxicity against human THP-1 cells assessed as reduction in cell viability incubated for 24 hrs by resazurin staining based analysis", "assay_type": "toxicity"}, "Staphylococcus aureus [27]": {"system": "Staphylococcus aureus", "test": "Drug resistance, ratio of MIC for Staphylococcus aureus ATCC 25923 after 20 days exposure to MIC for Staphylococcus aureus ATCC 25923 during first exposure", "assay_type": "functional", "details": "time 20 day"}, "Staphylococcus aureus [28]": {"system": "Staphylococcus aureus", "test": "Antibacterial activity against Staphylococcus aureus ATCC 43300 assessed as reduction in bacterial growth incubated for 18 to 20 hrs by broth microdilution assay", "assay_type": "functional", "details": "time 18-20 hrs"}, "Staphylococcus aureus [29]": {"system": "Staphylococcus aureus", "test": "Synergistic antibacterial activity against methicillin-resistant Staphylococcus aureus ATCC 43300 incubated for 18 to 20 hrs in presence of gentamicin by checkboard assay", "assay_type": "functional", "details": "time 18-20 hrs"}, "Staphylococcus aureus [30]": {"system": "Staphylococcus aureus", "test": "Bactericidal activity against Staphylococcus aureus ATCC 25923 at 4 times MIC measured after 6 hrs by time kill-assay", "assay_type": "functional, organism-based"}, "Staphylococcus aureus [31]": {"system": "Staphylococcus aureus", "test": "Synergistic antibacterial activity against methicillin-resistant Staphylococcus aureus ATCC 43300 assessed as vancomycin MIC incubated for 18 to 20 hrs by checkboard assay", "assay_type": "functional", "details": "time 18-20 hrs"}, "Staphylococcus aureus [32]": {"system": "Staphylococcus aureus", "test": "Antibiofilm activity against Staphylococcus aureus ATCC 25923 assessed as inhibition of biofilm viability at 100 uM incubated for 18 to 20 hrs by resazurin staining based assay", "assay_type": "functional", "details": "time 18-20 hrs"}, "Staphylococcus aureus [33]": {"system": "Staphylococcus aureus", "test": "Synergistic antibacterial activity against Staphylococcus aureus ATCC 25923 incubated for 18 to 20 hrs in presence of ciprofloxacin by checkboard assay", "assay_type": "functional", "details": "time 18-20 hrs"}, "Enterococcus faecalis [34]": {"system": "Enterococcus faecalis", "test": "Synergistic antibacterial activity against Enterococcus faecalis ATCC 29212 incubated for 18 to 20 hrs in presence of ciprofloxacin by checkboard assay", "assay_type": "functional", "details": "time 18-20 hrs"}, "Staphylococcus aureus [35]": {"system": "Staphylococcus aureus", "test": "Synergistic antibacterial activity against methicillin-resistant Staphylococcus aureus ATCC 43300 assessed as fractional inhibitory concentration index incubated for 18 to 20 hrs in presence of linezolid by checkboard assay", "assay_type": "functional", "details": "time 18-20 hrs"}}, "note": "Values joined by “and” are separate entries in the source; they are usually repeats but may differ in a detail not shown here. Equal entries are not always repeated. Active and inactive are the calls of the source. No cut-off for these calls is given here."}
{"smiles": "O=C(O)c1cc2cc(OCc3ccc(C4CCCCC4)c(C(F)(F)F)c3)ccc2[nH]1", "values": [{"measurement": "MIC", "setting": "Staphylococcus aureus [1]", "value": 0.312, "unit": "µM"}, {"measurement": "MIC", "setting": "Staphylococcus aureus [2]", "value": 2.5, "unit": "µM"}, {"measurement": "selectivity ratio", "setting": "[3]", "value": "> 12"}, {"measurement": "CC50", "setting": "A549", "value": "> 100", "unit": "µM"}, {"measurement": "MIC", "setting": "Enterococcus faecalis [4]", "value": 5, "unit": "µM"}, {"measurement": "selectivity ratio", "setting": "[5]", "value": "> 12"}, {"measurement": "selectivity ratio", "setting": "[6]", "value": "> 12"}, {"measurement": "MIC", "setting": "Enterococcus faecalis [7]", "value": 5, "unit": "µM"}, {"measurement": "MIC", "setting": "Staphylococcus aureus [8]", "value": 2.2, "unit": "µM"}, {"measurement": "hemolysis at 1 h, 250 µM", "setting": "[9]", "value": 100, "unit": "%"}, {"measurement": "MIC", "setting": "Staphylococcus aureus [10]", "value": 32, "unit": "µg/mL"}, {"measurement": "fractional inhibitory concentration index (FICI)", "setting": "Staphylococcus aureus [11]", "value": 2}, {"measurement": "Activity", "setting": "Staphylococcus aureus [12]", "value": 88, "unit": "%"}, {"measurement": "MBC", "setting": "Enterococcus faecalis [13]", "value": 5, "unit": "µM"}, {"measurement": "MIC", "setting": "[14]", "value": 2.5, "unit": "µM"}, {"measurement": "MIC", "setting": "Staphylococcus aureus [15]", "value": 2.5, "unit": "µM"}, {"measurement": "Activity", "setting": "[16]", "value": "Non-Toxic"}, {"measurement": "MIC", "setting": "Staphylococcus aureus [17]", "value": 0.625, "unit": "µM"}, {"measurement": "MIC", "setting": "Enterococcus faecalis [18]", "value": 10, "unit": "µM"}, {"measurement": "MIC", "setting": "Staphylococcus aureus [19]", "value": 0.5, "unit": "µg/mL"}, {"measurement": "MIC", "setting": "Staphylococcus aureus [20]", "value": "5 µM and 2.1 µg/mL"}, {"measurement": "log(activity)", "setting": "Staphylococcus aureus [21]", "value": ">3"}, {"measurement": "MIC", "setting": "Staphylococcus aureus [22]", "value": 1.25, "unit": "µM"}, {"measurement": "MIC", "setting": "Pseudomonas aeruginosa", "value": "> 200", "unit": "µM"}, {"measurement": "Activity", "setting": "Cell membrane", "value": "inactive"}, {"measurement": "fractional inhibitory concentration index (FICI)", "setting": "Staphylococcus aureus [23]", "value": 1}, {"measurement": "fractional inhibitory concentration index (FICI)", "setting": "Staphylococcus aureus [24]", "value": 0.5}, {"measurement": "MIC", "setting": "Staphylococcus aureus [25]", "value": 1.25, "unit": "µM"}, {"measurement": "MIC", "setting": "Acinetobacter baumannii", "value": "> 200", "unit": "µM"}, {"measurement": "CC50 at 24 h", "setting": "[26]", "value": "> 100", "unit": "µM"}, {"measurement": "Ratio", "setting": "Staphylococcus aureus [27]", "value": 3}, {"measurement": "MIC", "setting": "Staphylococcus aureus [28]", "value": 2.5, "unit": "µM"}, {"measurement": "MIC", "setting": "Staphylococcus aureus [29]", "value": 0.625, "unit": "µM"}, {"measurement": "Activity", "setting": "Staphylococcus aureus [30]", "value": "Active"}, {"measurement": "MIC", "setting": "Staphylococcus aureus [31]", "value": 1.25, "unit": "µM"}, {"measurement": "inhibition at 100 µM", "setting": "Staphylococcus aureus [32]", "value": "> 90", "unit": "%"}, {"measurement": "MIC", "setting": "Staphylococcus aureus [33]", "value": 2.5, "unit": "µM"}, {"measurement": "MIC", "setting": "Enterococcus faecalis [34]", "value": 1.25, "unit": "µM"}, {"measurement": "fractional inhibitory concentration index (FICI)", "setting": "Staphylococcus aureus [35]", "value": 1}]}
